Measured values: patent publication US20250059140A1, “C19 D[…], AND PREPARATION METHOD AND APPLICATION THEREOF” (SOUTHWEST JIAOTONG UNIVERSITY, priority 2022, published 2025)
“Also recorded” adds a separate entry of the source. Like-named read-outs stand apart in the source and are kept apart here.

Columns and labels:
isolated bullfrog hearts = test: Cardiotonic effect on isolated bullfrog hearts in vitro; conditions: for Cardiotonic effect compared with the positive control: 0.005 mol/L versus positive control at 0.01 mol/L; for activation at 5000 µM: isolated bullfrog heart, tested concentration 0.005 mol/L; for Average increase rate (%) (average amplitude growth rate of the frog heart) / Results (class of heart-strengthening effect): positive control
Description: The preparation of in vitro isolated bullfrog heart was carried out according to the method recorded in the literature (Ding Hong, Experimental Pharmacology, pp. 504-506, Science Publishing House, 2008) as follows. Bullfrogs weighing 150-200 g, male and female, were used herein. At room temperature, the brain and spinal cord of the bullfrogs was destroyed with a metal probe, and then the chest wall of the bullfrogs was incised to expose the heart and the right aorta and the left aorta were each threaded with a wire. The right aorta was knotted directly, and the left aorta was cut with scissors in a “V” shaped incision. A frog heart cannula containing a small amount of Ringer's solution was inserted into the ventricle. The wire of the left aorta was attached and secured to the lateral hook of the cannula. The blood in the heart tube of the bullfrogs was repeatedly flushed with fresh Ringer's solution until the fluid was clear and colorless. The heart cannula was inserted into the ventricle and perfused with Ringer's solution. The bullfrog heart cannula was fixed on the iron stand with a clamp. The muscle tension transducer was fixedly arranged under the bullfrog heart cannula, and the isolated bullfrog heart was connected to the muscle tension transducer via a bullfrog heart clip and a wire. The volume of solution in the cannula was adjusted by 1.0 mL and the subject compound or an equivalent volume of a solvent was added to the cannula. The subject compound was evaluated for cardiac activity on isolated perfused frog hearts, and heart rate and contraction amplitude were recorded.
The cardiotonic effects of compounds 1-10 provided in the present disclosure on isolated bullfrog hearts in vitro were investigated, with deacetylmaurolidine and mesaconitine as positive controls.
The tested concentration of compounds 1-10 was 0.005 mol/L, and the tested concentrations of the positive controls, i.e., mesaconitine and deacetylmaurolidine, were 0.01 mol/L and 0.0002 mol/L, respectively.

NCX = test: qPCR transcriptional level of NCX in CoCl2-hypoxic H9c2 cells; format: cell-based; conditions: CoCl2-induced hypoxia in H9c2 cells, FIG. 2E
Description: (§1) FIGS. 2B-F show transcriptional level results (detected by q-PCR) of calcium channel-related indicators in cardiomyocytes, where 2B: DHPR; 2C: RyR2; 2D: SERCA2a; 2E: NCX; and 2F: NHE.
(§2) In FIGS. 2A-F, the detection is performed in triplicate; ##P<0.01, ###P<0.001, and ####P<0.0001, indicating the significant difference from the control group; and *P<0.05, **P<0.01, ***P<0.001, and ****P<0.0001, indicating the significant difference from the CoCl2 group.
(§3) When cells experienced hypoxic injury, a large amount of reactive oxygen species (ROS) was released. DCFH-DA probe was used to label ROS in H9c2 cells, and 900 μM CoCl2 and different concentrations of cammconine (12.5, 25, 50 PM) were administered to detect the changes in ROS by flow cytometry and fluorescence inverted microscopy. […] Changes in ATPase activity after treating the cells with myocardial hypoxia with cammaconine were detected by a kit. […] Changes in the transcriptional level of the cardiomyocyte hypoxia key indicator HIF-1α and calcium cycle-related indicators were detected by qPCR.

NHE = test: qPCR transcriptional level of NHE in CoCl2-hypoxic H9c2 cells; format: cell-based; conditions: CoCl2-induced hypoxia in H9c2 cells, FIG. 2F
Description: as §1, §2, §3

H9c2 cells = test: H9c2 cell viability by MTT assay, CoCl2-induced myocardial hypoxia; format: cell-based; conditions: concentration of 6.25-50 M, FIG. 1A
HIF-1α = test: qPCR transcriptional level of HIF-1α in CoCl2-hypoxic H9c2 cells; format: cell-based; conditions: CoCl2-induced hypoxia in H9c2 cells, FIG. 2A
Description: as §2, §3

DHPR = test: qPCR transcriptional level of DHPR in CoCl2-hypoxic H9c2 cells; format: cell-based; conditions: CoCl2-induced hypoxia in H9c2 cells, FIG. 2B
Description: as §1, §2, §3

[1] = test system: reactive oxygen species (ROS) in H9c2 cells; test: ROS detection with DCFH-DA probe in CoCl2-hypoxic H9c2 cells; format: cell-based; conditions: 12.5, 25, 50 PM; 900 μM CoCl2; flow cytometry and fluorescence microscopy
Description: FIGS. 1D-I show fluorescence detection results of reactive oxygen species (ROS) of different groups of H9c2 cells (scale bar: 20 μm), where 1D: control group; 1E: CoCl2 group; 1F: 50 μM-Trimetazidine group; 1G: 12.5 μM-Cammaconine group; 1H: 25 μM-Cammaconine group; and 11:50 μM-Cammaconine group;
as §3

Na+/K+-ATPase = Na+/K+-ATPase activity in hypoxic cardiomyocytes (kit); format: cell-based; conditions: concentration of 25 mol/L; CoCl2-induced hypoxia in H9c2 cells
Description: (§4) FIGS. 1B-C show an effect of the compound 1 on the Na^+/K^+-ATPase specific activity and Ca^2+/Mg^2+-ATPase activity of the hypoxic cardiomyocytes, where the test is performed in triplicate; ##P<0.01, ###P<0.001, and ####P<0.0001, indicating the significant difference from the control group; and *P<0.05, **P<0.01, ***P<0.001, and ****P<0.0001, indicating the significant difference from the CoCl2 group;
as §3

SERCA2a = test: qPCR transcriptional level of SERCA2a in CoCl2-hypoxic H9c2 cells; format: cell-based; conditions: CoCl2-induced hypoxia in H9c2 cells, FIG. 2D
Description: as §1, §2, §3

RyR2 = test: qPCR transcriptional level of RyR2 in CoCl2-hypoxic H9c2 cells; format: cell-based; conditions: CoCl2-induced hypoxia in H9c2 cells, FIG. 2C
Description: as §1, §2, §3

Ca2+/Mg2+-ATPase = Ca2+/Mg2+-ATPase activity in hypoxic cardiomyocytes (kit); format: cell-based; conditions: concentration of 25 mol/L; CoCl2-induced hypoxia in H9c2 cells
Description: as §4, §3

[2] = read-out: Average increase rate (%) (average amplitude growth rate of the frog heart)
[3] = read-out: Results (class of heart-strengthening effect)
[4] = tested concentration 0.0002 mol/L
[5] = tested concentration 0.01 mol/L

Compound	Cardiotonic effect compared with the positive control (isolated bullfrog hearts)	activation at 5000 µM (isolated bullfrog hearts; [2]) [%]	activation at 5000 µM (isolated bullfrog hearts; [3]) [%]	other results
CCN1C[C@]2(CO)CC[C@H](OC)[C@@]34C5C[C@H]6[C@H](O)C5[C@](O)(C[C@@H]6O)C(CC23)[C@@H]14 (stereo partly drawn) [Compound 7, 16-demethyl cammaconine]	better cardiotonic effect; also recorded: significantly enhanced	75.2	> 60	–
CCN1C[C@]2(CO)CC[C@H](OC)[C@@]34C5C[C@@H]6[C@@H](OC)C[C@@](OC)(C5[C@H]6O)C(CC23)[C@@H]14 (stereo partly drawn) [Compound 5, 8-O-methyl cammaconine]	–	33.6	31 to 60	–
CO[C@H]1C[C@@]2(O)C3C(C[C@H]1[C@@H]3OC)[C@]13C4CC2[C@H]1N(C)C[C@]4(CO)CC[C@@H]3OC (stereo partly drawn) [Compound 10, N-deethyl-N-methyl 14-O-methyl cammaconine]	better cardiotonic effect; also recorded: significantly enhanced	148	> 60	–
CO[C@H]1C[C@@]2(O)C3C(C[C@H]1[C@@H]3O)[C@]13C4CC2[C@H]1N(C)C[C@]4(CO)CC[C@@H]3OC (stereo partly drawn) [Compound 2, N-deethyl-N-methyl cammaconine]	better cardiotonic effect; also recorded: significantly enhanced	159	> 60	–
CCN1C[C@]2(CO)CC[C@H](OC)[C@@]34C5C[C@@H]6[C@@H](OC)C[C@@](O)(C5[C@H]6OC)C(CC23)[C@@H]14 (stereo partly drawn) [Compound 4, scaconine]	better cardiotonic effect; also recorded: significantly enhanced	156	> 60	–
CCN1C[C@]2(CO)CC[C@H](OC)[C@@]34C5C[C@@H]6[C@@H](OC)C[C@@](O)(C5[C@H]6O)C(CC23)[C@@H]14 (stereo partly drawn) [Compound 1, cammaconine]	better cardiotonic effect; also recorded: significantly enhanced	118	> 60	mRNA level of NCX (NCX): decreased; mRNA level of NHE (NHE): decreased; Cardioprotective effect on H9c2 cells (cell viability, MTT) (H9c2 cells): certain cardioprotective effects; mRNA transcriptional level of HIF-1α (HIF-1α): decreased; mRNA level of DHPR (DHPR): decreased; Levels of ROS in H9c2 cells [1]: significantly reduced; Na+/K+-ATPase activity (Na+/K+-ATPase): increase the enzyme activity; mRNA level of SERCA2a (SERCA2a): decreased; mRNA level of RyR2 (RyR2): decreased; Ca2+/Mg2+-ATPase activity (Ca2+/Mg2+-ATPase): increase the enzyme activity
deacetylmaurolidine [reference compound]	–	–	–	Average increase rate (%) (average amplitude growth rate of the frog heart) (isolated bullfrog hearts; [4]): 61%; Results (class of heart-strengthening effect) (isolated bullfrog hearts; [4]): Strong (>60% (+++, strong))
CCO[C@]12C[C@H](OC)[C@H]3CC(C1[C@H]3O)[C@]13C4CC2[C@H]1N(CC)C[C@]4(CO)CC[C@@H]3OC (stereo partly drawn) [Compound 8, 8-O-ethyl cammaconine]	–	57.2	31 to 60	–
CCO[C@]12C[C@H](OC)[C@H]3CC(C1[C@H]3OC)[C@]13C4CC2[C@H]1N(CC)C[C@]4(CO)CC[C@@H]3OC (stereo partly drawn) [Compound 9, 8-O-ethyl, 14-O-methyl cammaconine]	–	21.8	16 to 30	–
CCN1C[C@]2(CO)CC[C@H](OC)[C@@]34C5C[C@@H]6[C@@H](OC)C[C@@](OC)(C5[C@H]6OC)C(CC23)[C@@H]14 (stereo partly drawn) [Compound 6, 8,14-O-dimethyl cammaconine]	–	31.2	31 to 60	–
CO[C@H]1C[C@@]2(O)C3C(C[C@H]1[C@@H]3O)[C@]13C4CC2[C@H]1NC[C@]4(CO)CC[C@@H]3OC (stereo partly drawn) [Compound 3, N-deethyl cammaconine]	–	36.8	31 to 60	–
COC[C@]12CN(C)[C@@H]3[C@@H]4[C@H](OC)[C@H]1[C@@]3([C@@H](OC)C[C@H]2O)[C@@H]1C[C@@]2(O)[C@H](OC(=O)c3ccccc3)[C@@H]1[C@]4(OC(C)=O)[C@@H](O)[C@@H]2OC [Mesaconitine, mesaconitine, reference compound]	–	–	–	Average increase rate (%) (average amplitude growth rate of the frog heart) (isolated bullfrog hearts; [5]): 70.7%; Results (class of heart-strengthening effect) (isolated bullfrog hearts; [5]): Strong (>60% (+++, strong))
